According to patent US11014917B2, “5-fluoro-c-(aryl or heterocyclyl)-glycoside derivatives useful as dual SGLT1 / SGLT2 modulators” (Janssen Pharmaceutica NV, priority 2017, dated 2021):
pIC50: −log10 of the molar value.

How the values were obtained:
human SGLT2 = molecular target: T1, human SGLT2 (Homo sapiens, UniProt P31639); assay: SGLT2 assay: Na-dependent 14C-AMG uptake in CHO-K1 cells stably expressing human SGLT2; type: cell-based; settings: for pIC50: average if tested more than once; for SGLT2 %-inhibition / inhibition at 0.3 µM: @ 0.3 μM
T1 construct: expressed in transfected cells
T1 sequence (P31639 1-672): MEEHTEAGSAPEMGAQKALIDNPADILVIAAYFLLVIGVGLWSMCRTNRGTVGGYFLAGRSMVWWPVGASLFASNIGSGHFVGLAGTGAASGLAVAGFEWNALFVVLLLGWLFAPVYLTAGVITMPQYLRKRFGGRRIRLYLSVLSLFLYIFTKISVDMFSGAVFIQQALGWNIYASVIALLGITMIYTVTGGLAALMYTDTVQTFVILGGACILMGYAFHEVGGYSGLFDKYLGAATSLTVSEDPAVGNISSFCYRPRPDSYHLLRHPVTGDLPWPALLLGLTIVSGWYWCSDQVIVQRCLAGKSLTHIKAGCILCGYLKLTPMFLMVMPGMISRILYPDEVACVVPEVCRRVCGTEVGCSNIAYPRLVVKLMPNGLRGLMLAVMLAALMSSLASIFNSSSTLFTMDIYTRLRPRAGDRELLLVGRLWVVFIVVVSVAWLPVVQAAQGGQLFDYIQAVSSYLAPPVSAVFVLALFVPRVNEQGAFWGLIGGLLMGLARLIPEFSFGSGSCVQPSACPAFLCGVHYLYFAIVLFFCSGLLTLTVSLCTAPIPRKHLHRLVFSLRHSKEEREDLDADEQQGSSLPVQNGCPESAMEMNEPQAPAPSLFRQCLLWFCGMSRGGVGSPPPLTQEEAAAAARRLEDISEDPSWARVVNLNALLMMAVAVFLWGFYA
Procedure: (§1) The ability of the compounds of formula (I) of the present invention to treat an SGLT-mediated condition was determined using the following procedures:
(§2) SGLT1 and SGLT2 were cloned in form of cDNA from human small intestine (Genbank M24847), and from human kidney (Genbank M95549), respectively. Subsequently, each full cDNA was subcloned into pcDNA with each construct's integrity verified through follow-on sequencing. To generate CHO-K1 cells that stably express human SGLT1 or human SGLT2, CHO-K1 cells were transfected using DMRIE-C reagent (Life Technologies, Gaithersburg, Md.). Transfected cells were then selected in the presence of 500 μg/ml of the Geneticin (G418 Cellgro Catalog No. 30234-Cl)
(§3) Individual clones were then characterized using the following cell-based assay for sodium-dependent glucose transport:
(§4) Inhibition of SGLT1 and SGLT2 activity was assessed in CHO K1 cells stably expressing either human SGLT1 or SGLT2, using the SGLT specific glucose analog methyl-glucopyranoside (Sigma Catalog No. M-9376). Cells were plated (45,000 cells/well) in white wall 96-well plates (COSTAR, Cat #3903) for 24 hours in growth medium, then a final concentration of 10 mM Na-Butyrate (ALDRICH Cat #30341-0) was added. The cells were incubated for 24 hours. On the day of the assay, cells were rinsed and treated with test compounds (at concentrations of 0.001 μM to 10 μM) in assay buffer (50 mM HEPES, 20 mM Tris base, 5 mM KCl, 1 mM MgCl2, 1 mM CaCl2 and 137 mM NaCl, pH 7.4) for 10 minutes. Cells were then incubated with ^14C-a-methyl-d-glucopyranoside (AMG, Amersham Catalog No. CFB 76), using 0.07 μCi per well in 500 μM AMG final concentration. The cells were incubated for 2 hours at 37° C. with 5% CO2 and washed two times with ice-cold Phosphate Buffer Solution (Cellgro Catalog No. 21030-CV). The cells were then solubilized by adding 60 μl of MICROSCINT™20 and the Na-dependent ^14C-AMG uptake was quantified by measuring radioactivity. Plates were counted in a TopCount (Packard, Meriden, Conn.)
(§5) Representative compounds of the present invention were tested according to the procedures as described in Biological Example 1 and 2 above, with results as listed in Table 5, below. Results are reported as the %-inhibition or IC50 value. Variability for the functional assay was typically within 20%.

human SGLT1 = molecular target: T2, human SGLT1 (Homo sapiens, UniProt P13866); assay: SGLT1 assay: Na-dependent 14C-AMG uptake in CHO-K1 cells stably expressing human SGLT1; type: cell-based; settings: for pIC50: average if tested more than once; for SGLT1 %-inhibition / inhibition at 0.3 µM: @ 0.3 μM
T2 construct: expressed in transfected cells
T2 sequence (P13866 1-664): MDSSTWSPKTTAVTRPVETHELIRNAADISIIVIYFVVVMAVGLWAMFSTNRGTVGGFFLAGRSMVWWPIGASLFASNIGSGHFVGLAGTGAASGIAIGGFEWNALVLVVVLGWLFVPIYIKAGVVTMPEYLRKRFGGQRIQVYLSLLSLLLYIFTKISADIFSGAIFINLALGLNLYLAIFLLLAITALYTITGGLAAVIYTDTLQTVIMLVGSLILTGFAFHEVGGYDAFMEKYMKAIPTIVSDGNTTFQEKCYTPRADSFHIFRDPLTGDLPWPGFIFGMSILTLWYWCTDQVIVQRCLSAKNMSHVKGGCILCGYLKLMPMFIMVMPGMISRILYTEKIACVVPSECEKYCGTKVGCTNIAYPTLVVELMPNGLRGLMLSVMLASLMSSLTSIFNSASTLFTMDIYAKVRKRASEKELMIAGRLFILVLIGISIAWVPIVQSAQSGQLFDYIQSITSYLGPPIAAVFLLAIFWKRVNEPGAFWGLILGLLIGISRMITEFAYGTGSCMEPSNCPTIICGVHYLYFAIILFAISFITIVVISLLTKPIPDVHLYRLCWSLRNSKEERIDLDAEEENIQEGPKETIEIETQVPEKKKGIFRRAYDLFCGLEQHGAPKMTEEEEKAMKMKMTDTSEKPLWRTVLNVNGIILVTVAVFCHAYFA
Procedure: as §1, §2, §3, §4, §5

SMILES	pIC50 (human SGLT2)	pIC50 (human SGLT1)	SGLT2 %-inhibition (human SGLT2) [% @ 0.3 μM]	further results
CCc1c(Cc2ccc3c(c2)OCCO3)cc([C@@H]2O[C@H](CO)[C@@H](F)[C@H](O)[C@H]2O)c2c1CCO2 [Compound 180]	7.60	7.21	–	–
COc1cc(OC)c([C@@H]2O[C@H](CO)[C@@H](F)[C@H](O)[C@H]2O)cc1Cc1cc2ccccc2s1 [Compound 12]	7.62	7.00	–	–
COc1cc(O)c([C@@H]2O[C@H](CO)[C@@H](F)[C@H](O)[C@H]2O)cc1Cc1cc2c(s1)CCN(C#N)C2 [Compound 100]	8.10	7.02	–	–
COc1cc(Cl)c(Cc2cc3c(s2)CCN(C(C)=O)C3)cc1[C@@H]1O[C@H](CO)[C@@H](F)[C@H](O)[C@H]1O [Compound 77]	–	–	69.9	SGLT1 %-inhibition (human SGLT1): 30.3% @ 0.3 μM
[2H]C1([2H])Oc2ccc(Cc3cc([C@@H]4O[C@H](CO)[C@@H](F)[C@H](O)[C@H]4O)c4c(c3CC)CCO4)cc2OC1([2H])[2H] [Compound 179]	7.82	7.22	–	–
COc1c(Cc2ccc3c(c2)CC3)cc([C@@H]2O[C@H](CO)[C@@H](F)[C@H](O)[C@H]2O)c2c1CCO2 [Compound 152]	8.22	8.22	–	–
Cc1cc(O)c([C@@H]2O[C@H](CF)[C@@H](F)[C@H](O)[C@H]2O)cc1Cc1cc2ccccc2s1 [Compound 20, (2S,3R,4R,5S,6R)-2-(5-(benzo[b]thiophen-2-ylmethyl)-2-hydroxy-4-methylphenyl)-5-fluoro-6-(fluoromethyl)-tetrahydro-2H-pyran-3,4-diol]	6.40	6.94	–	–
CCOC(=O)N1CCc2sc(Cc3cc([C@@H]4O[C@H](CO)[C@@H](F)[C@H](O)[C@H]4O)c(O)cc3C)cc2C1 [Compound 64]	7.44	6.81	–	–
CN1CCCc2ccc(Cc3cc([C@@H]4O[C@H](CO)[C@@H](F)[C@H](O)[C@H]4O)cc4c3OCC4)cc21 [Compound 94]	–	–	19.2	SGLT1 %-inhibition (human SGLT1): 32.6% @ 0.3 μM
COC(=O)N1CCc2sc(Cc3cc([C@@H]4O[C@H](CO)[C@@H](F)[C@H](O)[C@H]4O)ccc3Cl)cc2C1 [Compound 80]	–	–	60.4	SGLT1 %-inhibition (human SGLT1): 37.4% @ 0.3 μM
Cc1ccc([C@@H]2O[C@H](CO)[C@@H](F)[C@H](O)[C@H]2O)cc1Cc1cc2c(s1)CCN(C#N)C2 [Compound 92, 2-(5-((2S,3R,4R,5S,6R)-5-fluoro-3,4-dihydroxy-6-(hydroxymethyl)-tetrahydro-2H-pyran-2-yl)-2-methylbenzyl)-6,7-dihydrothieno[3,2-c]pyridine-5(4H)-carbonitrile]	–	–	–	inhibition at 0.3 µM (human SGLT2): 76.2%; inhibition at 0.3 µM (human SGLT1): 29%
Cc1ccc([C@@H]2O[C@H](CO)[C@@H](F)[C@H](O)[C@H]2O)cc1Cc1cc2c(s1)CCN(C(=O)c1nccs1)C2 [Compound 109, (2-(5-((2S,3R,4R,5S,6R)-5-fluoro-3,4-dihydroxy-6-(hydroxymethyl)-tetrahydro-2H-pyran-2-yl)-2-methylbenzyl)-6,7-dihydrothieno[3,2-c]pyridin-5(4H)-yl)(thiazol-2-yl)methanone]	–	–	–	inhibition at 0.3 µM (human SGLT2): 72.7%; inhibition at 0.3 µM (human SGLT1): 39.5%
Cc1c(Cc2ccc3c(c2)CCCO3)cc([C@@H]2O[C@H](CO)[C@@H](F)[C@H](O)[C@H]2O)c2c1CCO2 [Compound 130]	–	–	81.6	SGLT1 %-inhibition (human SGLT1): 44.8% @ 0.3 μM
COc1cc(C)c(Cc2cc3c(s2)CCN(C#N)C3)cc1[C@@H]1O[C@H](CO)[C@@H](F)[C@H](O)[C@H]1O [Compound 110, 2-(5-((2S,3R,4R,5S,6R)-5-fluoro-3,4-dihydroxy-6-(hydroxymethyl)-tetrahydro-2H-pyran-2-yl)-4-methoxy-2-methylbenzyl)-6,7-dihydrothieno[3,2-c]pyridine-5(4H)-carbonitrile]	8.30	5.85	–	–
COc1cc(OC)c([C@@H]2O[C@H](CO)[C@@H](F)[C@H](O)[C@H]2O)cc1Cc1cc2c(s1)CCN(C(C)=O)C2 [Compound 82]	–	–	58.9	SGLT1 %-inhibition (human SGLT1): 42.2% @ 0.3 μM
OCCC1COc2c(Cc3ccc4c(c3)OCCO4)cc([C@@H]3O[C@H](CO)[C@@H](F)[C@H](O)[C@H]3O)cc21 (some centres unmarked) [Compound 93]	–	–	42.3	SGLT1 %-inhibition (human SGLT1): 33.6% @ 0.3 μM
O=C(N1CCCC1)N1CCc2sc(Cc3cc([C@@H]4O[C@H](CO)[C@@H](F)[C@H](O)[C@H]4O)cc4c3OCC4)cc2C1 [Compound 70]	6.79	7.00	–	–
Cc1cc(O)c([C@@H]2O[C@H](C(C)(C)O)[C@@H](F)[C@H](O)[C@H]2O)cc1Cc1cc2ccccc2s1 [Compound 39]	6.91	6.42	–	–
[2H]C1([2H])Oc2ccc(Cc3cc([C@@H]4O[C@H](CO)[C@@H](F)[C@H](O)[C@H]4O)c(OC)c4c3OCC4)cc2OC1([2H])[2H] [Compound 172, (2S,3R,4R,5S,6R)-5-fluoro-6-(hydroxymethyl)-2-[4-methoxy-7-[(2,2,3,3-tetradeuterio-1,4-benzodioxin-6-yl)methyl]-2,3-dihydrobenzofuran-5-yl]tetrahydropyran-3,4-diol]	8.15	7.35	–	–
Cc1cc(N2CCc3sc(Cc4cc([C@@H]5O[C@H](CO)[C@@H](F)[C@H](O)[C@H]5O)ccc4C)cc3C2)c(C)s1 [Compound 138]	–	–	46.7	SGLT1 %-inhibition (human SGLT1): 37.5% @ 0.3 μM
OC[C@H]1O[C@@H](c2cc(Cc3ccc4c(c3)OCCO4)c(Cl)c3c2CCO3)[C@H](O)[C@@H](O)[C@@H]1F [Compound 154]	8.70	7.38	–	–
OC[C@H]1O[C@@H](c2cc(Cc3ccc4c(c3)CCCO4)c(Cl)c3c2OCC3)[C@H](O)[C@@H](O)[C@@H]1F [Compound 125, (2S,3R,4R,5S,6R)-2-(4-chloro-5-(chroman-6-ylmethyl)-2,3-dihydrobenzofuran-7-yl)-5-fluoro-6-(hydroxymethyl)-tetrahydro-2H-pyran-3,4-diol]	7.77	6.64	–	–
COc1cc(O)c([C@@H]2O[C@H](CN)[C@@H](F)[C@H](O)[C@H]2O)cc1Cc1cc2ccccc2s1 [Compound 28]	–	–	50.3	–
CC(C)Oc1cc(O)c([C@@H]2O[C@H](CO)[C@@H](F)[C@H](O)[C@H]2O)cc1Cc1cc2ccccc2s1 [Compound 32]	–	–	15.3	–
CCOc1cc(O)c([C@@H]2O[C@H](CO)[C@@H](F)[C@H](O)[C@H]2O)cc1Cc1cc2ccccc2s1 [Compound 30]	–	–	51.0	–
